# Reference: patent US10576082B2, “ErbB2 regulates autophagic flux to modulate the proteostasis of APP-CTFs in alzheimer's disease” (Academia Sinica, priority 2016, dated 2020)
# Test system: γ-secretase-mediated proteolysis of C99 (CG cells)
# Experiment: Cell-based C99-specific γ-secretase assay (CG cells, Gal4 luciferase reporter)
# Conditions: 1 μM inhibitor, 1 μg/ml tetracycline, 37° C., 24 h
# Description: (A) Adherent CG and NG cells (20,000 cells/well) were treated with 1 μM of the indicated ErbB1/2-selective tyrosine kinase inhibitors in the presence of 1 μg/ml tetracycline at 37° C. for 24 h. The luminescence signals emitted by cells treated with vehicle alone (Ctrl, 0.1% DMSO) were referred to as 100% relative luminescence signals. The luminescence signals generated by γ-secretase-mediated proteolysis of C99 (CG) or NΔE (NG) were determined using the Steady-Glo luciferase assay reagent. (B) HEK293 overexpressing C99-YFP cells were treated with 1 μM of the indicated ErbB1/2 tyrosine kinase inhibitors at 37° C. for 24 h. Clarified lysates were analyzed by Western blotting and quantified by Image J. (C) HEK293 overexpressing ErbB1 ErbB2, CFP-tagged C99, and YFP-tagged NΔE cells were infected with gene-targeting shRNA-encoding lentivirus (shErbB1 or shErbB2) at 37° C. for 48 h. Clarified lysates containing equivalent amounts of proteins were examined by Western blotting and quantified by Image J. (D) CG and NG cells were infected with gene-targeting shRNA-encoding lentivirus at 37° C. for 48 h. Following induction with 1 μg/ml tetracycline for 24 h. […] Data are shown as the mean±SD from three independent experiments, and were analyzed by Student's t-tests. * p<0.05. […]
smiles,measurement,value
"CC#CC(=O)Nc1ccc2ncnc(Nc3cccc(Br)c3)c2c1 [CL-387,785, N-[4-[(3-bromophenyl)amino]-6-quinazolinyl]-2-butynamide]",processing of C99 (luminescence signal in CG cells),effectively blocked the processing of C99
